Experimental data published in paper PMC8406319, “The dCache Chemoreceptor TlpA of Helicobacter pylori Binds Multiple Attractant and Antagonistic Ligands via Distinct Sites” (mBio, 2021).
Where a name gives a salt, the structure may show the parent alone.

Tested on: H. pylori PMSS1 WT
Experiment: Ligand competition tracking (chemotaxis) assay
Type: cell-based, Helicobacter pylori
Conditions: 10 mM each; added before or after the chemoattractant
Procedure: Consequently, we tested whether glucosamine affected H. pylori chemotaxis by developing a ligand competition tracking assay between non-chemotaxis-active and chemotaxis-active TlpA ligands. This assay is a modified version of our live-cell video microscopy assay where the addition of a chemotaxis-active ligand is followed by the addition of a non-chemotaxis-active ligand 10 s later and vice versa. […] This response was decreased regardless of whether glucosamine was added before or after the addition of the chemoattractant.
FIG 7 Ligand competition tracking experiment between chemoactive and nonchemoactive TlpA ligands. Cultures of the H. pylori PMSS1 WT were grown in BB10 overnight and then back-diluted as described in the legend of Fig. 1. Cultures were mock treated or treated with various concentrations of compounds as indicated. The pH of the cysteine stock was adjusted using NaOH to match the pH of the water used for the untreated control. The cells were immediately filmed, and direction changes were counted over a 3-s swimming period in at least 100 cells per treatment from 3 biological replicates. Repellents increase direction changes, as exemplified by the control repellent HCl, while attractants decrease direction changes, as exemplified by the control attractant dipyridyl. Data are normalized to the values for the untreated control for each strain, as described in Materials and Methods. […]
Swimming behavior assays were done with H. pylori PMSS1 strains grown in BB10 as described above. […] The pH of BB10 upon treatment was independently assessed using a Denver Instruments pH meter. […] For each sample, >100 3-s-long bacterial tracks from three independent cultures were analyzed manually to identify stops followed by direction changes. Data for all biological replicates under each condition were combined, and the average number of direction changes in 3 s and the standard error of the mean were calculated. […]

Q: With N[C@H]1C(O)O[C@H](CO)[C@@H](O)[C@@H]1O (stereo partly drawn) [Glucosamine, D(+)-glucosamine hydrochloride] as the compound, how does the “Effect on chemoattractant response to arginine” value read?
A: The value was “prevented the chemoattractant response”.

Q: And the “Effect on chemoattractant response to cysteine” value?
A: The value was “severely blunted the response”.

Q: What about the “Effect on chemoattractant response to fumarate” value of the same compound?
A: Its value is “prevented the chemoattractant response”.
